Measurements from ChEMBL document CHEMBL1148682, “Cyclopentane-based human NK1 antagonists. Part 2: development of potent, orally active, water-soluble derivatives” (Bioorg Med Chem Lett, 2006).

Test: Dissociation constant, pKa of the compound
Type: physicochemical
In the case of `C[C@@H](O[C@H]1OCCN(Cc2n[nH]c(=O)[nH]2)[C@H]1c1ccc(F)cc1)c1cc(C(F)(F)F)cc(C(F)(F)F)c1` [APREPITANT], the pKa is reported as < 3.5.
Work on `C[C@@H](O[C@H]1CC[C@@H](N(C)Cc2n[nH]c(O)n2)[C@@H]1c1ccc(F)cc1)c1cc(C(F)(F)F)cc(C(F)(F)F)c1` yielded a pKa of 4.7.
`CN(CC(N)=O)C1CCC(OCc2cc(C(F)(F)F)cc(C(F)(F)F)c2)C1c1ccccc1` (configuration not stated) gave a pKa of 5.8.
`NC(=O)CNC1CCC(OCc2cc(C(F)(F)F)cc(C(F)(F)F)c2)C1c1ccccc1` (configuration not stated) showed a pKa of 6.6.
`CNC(=O)CN(C)[C@@H]1CC[C@H](O[C@H](C)c2cc(C(F)(F)F)cc(C(F)(F)F)c2)[C@H]1c1ccc(F)cc1` gave a pKa of 5.3.
Work on `C[C@@H](O[C@H]1CC[C@@H](N(C)Cc2c[nH]c(O)n2)[C@@H]1c1ccc(F)cc1)c1cc(C(F)(F)F)cc(C(F)(F)F)c1` yielded a pKa of 6.2.
With `C[C@@H](O[C@H]1CC[C@@H](N(C)CC(N)=O)[C@@H]1c1ccc(F)cc1)c1cc(C(F)(F)F)cc(C(F)(F)F)c1` the pKa was 5.3.
